Measured values from paper PMC5470083 (Molecular imaging, 2016).
Read-outs that look alike come from different tables or passages of the source.

Key:
[1] = biological target: tau (NFTs) (Homo sapiens, UniProt P10636); type: binding; details: 1 µmol/L compound; tracer 10 nmol/L [18F]T808; human AD slices; n = 3
[2] = biological target: PHF tau (Homo sapiens, UniProt P10636); type: binding
[3] = biological target: amyloid plaques (Homo sapiens, UniProt P05067); type: binding
[4] = biological target: Aβ (Homo sapiens, UniProt P05067); experiment: In vitro autoradiography binding inhibition of [11C]PiB on human AD brain slices
[5] = read-out: % Block ± SD of tracer binding

PHF tau, sequence (P10636 623-695 limits assumed): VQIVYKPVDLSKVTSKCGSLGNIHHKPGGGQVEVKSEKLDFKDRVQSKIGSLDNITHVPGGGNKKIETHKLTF
Aβ, sequence (P05067 672-711 limits assumed): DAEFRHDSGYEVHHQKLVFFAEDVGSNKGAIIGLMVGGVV
amyloid plaques, sequence (P05067 672-711 limits assumed): as above
tau (NFTs), sequence (P10636 623-708 limits assumed): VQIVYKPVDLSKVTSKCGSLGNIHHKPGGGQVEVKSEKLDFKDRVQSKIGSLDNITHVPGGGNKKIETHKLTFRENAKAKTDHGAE

% Block ± SD of tracer binding [1] | Ki [2] | Ki [3] | % Block ± SD of tracer binding ([4]; 1 µmol/L compound, tracer 13 nmol/L [11C]PiB, human AD slices, n = 3) | inhibition at 1 µM [4, 5] | inhibition at 1 µM ([4]; read-out: Inhibition of [11C]PiB binding, summary statements) | Compound
29 ± 0.1% |  |  |  |  |  | 2-[4-(4-Fluorophenyl)phenyl]-1,3-benzothiazole [TAU3]
 | > 4 µM | > 4.4 µM |  |  |  | COc1ccc(-c2csc(NN=Cc3ccccc3)n2)cc1 [TAU4, 1-Benzylidene-2-(4-(4-methoxyphenyl)thiazol-2-yl)hydrazine]
 | > 4 µM | > 4.4 µM |  |  |  | COc1ccc(-c2csc(NN=Cc3ccccn3)n2)cc1 [TAU5, 2-(4-(4-Methoxyphenyl)thiazol-2-yl)-1-((pyridin-2-yl)methylene)hydrazine]
 | > 4 µM | > 4.4 µM |  | 0% | < 17% | COc1ccc(-c2ccc3c(c2)[nH]c2ccncc23)cn1 [TAU6, 2-Methoxy-5-{5H-pyrido[4,3-b]indol-7-yl}pyridine]
 | 0.014 µM | 0.0049 µM |  | 0% |  | COc1ccc(-c2ccc3c(c2)[nH]c2ccncc23)cc1 [TAU7, 7-(4-Methoxyphenyl)-5H-pyrido[4,3-b]indole]
 | > 4 µM | > 4.4 µM |  | 0% |  | COC(=O)c1ccc(-c2ccc3c(c2)[nH]c2ccncc23)cn1 [TAU8, Methyl 5-{5H-pyrido[4,3-b]indol-7-yl}pyridine-2-carboxylate]
48 ± 0.0% |  |  |  |  |  | Methyl 2-(4-nitrophenyl)benzo[d]thiazole-6-carboxylate [TAU2]

Further lines, the compound ahead of its results:

Compound | % Block ± SD of tracer binding [1] | Ki [2] | Ki [3] | % Block ± SD of tracer binding ([4]; 1 µmol/L compound, tracer 13 nmol/L [11C]PiB, human AD slices, n = 3) | inhibition at 1 µM [4, 5] | inhibition at 1 µM ([4]; read-out: Inhibition of [11C]PiB binding, summary statements)
COc1ccc(CCN2CCC(Nc3nc4ccccc4n3Cc3ccc(F)cc3)CC2)cc1 [Astemizole] |  | > 4 µM | > 4.4 µM |  |  | 
Cc1c(OCC(F)(F)F)ccnc1C[S+]([O-])c1nc2ccccc2[nH]1 (stereo not shown) [Lansoprazole] |  | > 4 µM | > 4.4 µM |  |  | 
[11CH3]Nc1ccc(-c2nc3ccc(O)cc3s2)cc1 [PiB, 2-[4-([^11C]methylamino)phenyl]benzothiazol-6-ol] |  | 0.129 µM |  | 57 ± 0.0% |  | 
